“Also recorded” adds a separate entry of the source. Where no end group is shown, it is not given here.
Key:
CRM1 = biological target: T1, CRM1 (Rattus norvegicus, UniProt Q80U96); test: CRM1 mediated nuclear export of CnA in cardiomyocytes; type: cell-based; settings: full length CnA imported by Ang II stimulation, calpeptin added
T1 construct: endogenous in cells; host or cells: cardiomyocytes (neonatal rat)
Method: To address whether CnA nuclear export is mediated by CRM1, experiments using the CRM1 specific inhibitor, leptomycin B (LMB), were performed. Agonist-dependent nuclear import of full length CnA was achieved by Ang II stimulation. Calpeptin was added to prevent proteolysis of CnA.

[1] = test system: cJUN, ERK 1/2, GATA4, NFAT2; test: Specificity: nuclear accumulation of other transcription factors in phenylephrin stimulated cardiomyocytes; type: cell-based; settings: cardiomyocytes stimulated with phenylephrin; FIG. 9
From the text: The inventor also analyzed the specificity with the peptide (AAVALLPAVLAALAA KQECKIKYSERV SEQ ID NO: 5). In theory this peptide that mimics the Calcineurin NLS saturates the binding site on importin and therefore might completely block importin function for other transcription factors as well.

[2] = biological target: T2, calcineurin (CnA)/importin β1 interaction (Homo sapiens, UniProt Q14974); test: Peptide competition / co-immunoprecipitation of calcineurin with importin β1; type: binding; settings: HeLa cells transfected with GFP-tagged CnA mutants (FIG. 3)
T2 construct: expressed in transfected cells; host or cells: HeLa cells (importin β1 endogenous, EGFP-CnAβ transfected)
Method: Immunoprecipitation of the CnA/importin complexes was performed with importin β1 antibodies, detection with a GFP antibody.
Epitope-tagged derivatives of calcineurin Aβ containing amino-terminal EGFP were generated using the mammalian expression vector pEGFP-C3 (BD Bioscience Clontech). For cloning of calcineurin mutants the mammalian expression vector pCMV-Sport6 containing the directionally cloned cDNA of human calcineurin Aβ was used (Invitrogen). The following mutants have been amplified by PCR, digested with XbaI and XhoI and cloned into the XbaI and XhoI sites of the described plasmid: CnAβ(full), CnAβ 1-415, CnAβ 1-425, CnAβ 1-445, CnAβ 1-465, CnAβ 1-485 and CnAβ 171-190. For these truncated mutants different reverse oligonucleotides were designed with subsequent N-terminal binding sites. The forward primer, binding at the N-terminus of calcineurin, was identical for each plasmid apart from the CnA(171-190) mutant. For this derivative primers are bound upstream of aa 171 and downstream of aa 190, respectively. Two internal mutants CnAβ(Δ420-434) and CnAβ(Δ420-445) were cloned into the XbaI and XhoI sites of pEGFP-C3 using a two step strategy. […]
(§1) The subcellular distribution of calcineurin was determined by immunofluorescence stainings. The primary antibodies used in fluorescence staining are described elsewhere (Burkhard et al., 2005). […]

[3] = test system: nuclear import of calcineurin (CnA) via importin β1; test: Peptide competition assay: nuclear import of calcineurin in cardiomyocytes; type: cell-based; settings: neonatal rat cardiomyocytes stimulated with Ang II; peptide added to the medium (1 μM)
Method: (§2) Neonatal rat cardiomyocytes were incubated with a peptide mimicking the NLS sequence of CnA (SEQ ID NO:2) and stimulated with Ang II ([…]). […] Nuclear import of CnA was therefore prevented. Control experiments were performed with a non-sense peptide SEQ ID NO: 3).
(§3) Neonatal rat cardiomyocytes of Wistar rats were isolated as described previously (Ritter et al., 2003). Cells were resuspended in minimum essential medium/1% FCS. After preplating, the cardiomyocyte containing supernatant was recovered, and cells were plated in minimum essential medium on 6-well plates at a density of 1×10^6 cells per well. The medium for cardiomyocytes contained 5-bromo-2′-deoxyuridine (0.1 mmol/L) to suppress fibroblast growth. Fibroblast contamination of cardiomyocyte cultures was between 4% and 7% as regularly determined by immunohistochemical staining for troponin T. HeLa cells were grown in DMEM/5% FCS (Sigma). 48 hours after preparation, cells were stimulated with 10 nmol/L angiotensin II (Ang II). Cells were harvested 24 hours after stimulation. Concentrations were as follows: Ang II: 10 μM, calpeptin: 10 μM, NLS peptide and control peptide: 1 μM, respectively.
as §1

calcineurin (CnA) = test: CnA phosphatase activity (specific phosphosubstrate RII, Biomol kit); type: biochemical, rat; settings: cardiomyocytes stimulated with Ang II (10 μM); n=8, p=not significant
Method: as §3, with “48 hours after preparation, cells were stimulated with 10 nmol/L angiotensin II (Ang II). Cells were harvested 24 hours after stimulation. Concentrations were as follows: Ang II: 10 μM, calpeptin: 10 μM, NLS peptide and control peptide: 1 μM, respectively.” left out
NF-ATc reporter plasmid comprised the II-2 promoter followed by luciferase. Luciferase activity was determined according to the manufacturer's protocol (Promega). CnA phosphatase activity was determined using a commercial kit (CnA kit assay, Biomol) that measures effect on a specific CnA phosphosubstrate. […]
Phosphatase activity, transcriptional activity, protein synthesis, cell size and makers of myocardial hypertrophy in response to the peptide related inhibition of CnA nuclear import were examined. Phosphatase activity was assessed employing a specific substrate (RII) for can (Ritter et al., 2002). Cardiomyocytes were stimulated with Ang II (10 μM), and CnA phosphatase activity was measured in the presence of the NLS peptide or a non sense control peptide. […]

Ang II treated mice = test: Ang II (osmotic minipump) induced myocardial hypertrophy in mice; type: in vivo; settings: for dilation of the left ventricle (left ventricular end diastolic diameter, LVEDD): mice with implanted mini-osmotic pumps with AngII, FIG. 8; for development of myocardial hypertrophy in vivo (heart/body weight ratio, molecular markers, echocardiography): cyclic peptide 25 mg/kg body weight/day i.p.
Method: For in vivo use the blocking peptide, that mimics the calcineurin nuclear localization signal (NLS) received a peptide extension to increase membrane permeability and was synthesised as a cyclic peptide to withstand proteolysis of N- and C-terminal proteases. This peptide was administered twice daily at a concentration of 25 mg/kg body weight/day by i.p. injections into mice. The mice were treated with implanted osmotic minipumps to release either angiotensin II or saline as control.
The inventor now extended his experiments to in vivo data.

[4] = test system: CnA/NF-ATc signalling pathway; test: NF-ATc luciferase reporter plasmid transcriptional activity; type: cell-based, rat
Method: as §3
NF-ATc reporter plasmid comprised the II-2 promoter followed by luciferase. Luciferase activity was determined according to the manufacturer's protocol (Promega). CnA phosphatase activity was determined using a commercial kit (CnA kit assay, Biomol) that measures effect on a specific CnA phosphosubstrate. Free PO4 was indicated by a malachite green dye. The use of this kit has been described previously (Ritter et al., 2002).
(§4) Phosphatase activity, transcriptional activity, protein synthesis, cell size and makers of myocardial hypertrophy in response to the peptide related inhibition of CnA nuclear import were examined. Phosphatase activity was assessed employing a specific substrate (RII) for can (Ritter et al., 2002). Cardiomyocytes were stimulated with Ang II (10 μM), and CnA phosphatase activity was measured in the presence of the NLS peptide or a non sense control peptide. […] Similarly, myocardial hypertrophy, as evidenced by protein synthesis (707±21% vs. 133±12%, n=8, p<0.05), cell size (1191±91 μm^2 vs. 728±65 μm^2, n=8, p<0.05) (FIG. 5B), and expression of brain natriuretic peptide (BNP) (163±11% vs. 88±8%, n=8, p<0.05) (FIG. 5C), were suppressed by the NLS peptide.

[5] = test system: neonatal rat cardiomyocytes; test: Markers of myocardial hypertrophy in Ang II stimulated cardiomyocytes (protein synthesis, cell size, BNP); type: cell-based; settings: cardiomyocytes stimulated with Ang II (10 μM); n=8, p<0.05
Method: as §2, §3, §4

NFAT Luciferase reporter = NFAT Luciferase reporter transgenic mice treated with angiotensin II; type: in vivo
T cells = T cells stimulated with spleen dendritic cells (H3-thymidin incorporation); type: cell-based; settings: T cells stimulated with spleen dendritic cells and simultaneously treated with peptide; FIG. 6
From the text: Bars indicate protein synthesis (H3-thymidin incorporation).
The inventor now extended the experiments to T-cells and to in vivo experiments in mice.

T2 sequence (Q14974 whole entry): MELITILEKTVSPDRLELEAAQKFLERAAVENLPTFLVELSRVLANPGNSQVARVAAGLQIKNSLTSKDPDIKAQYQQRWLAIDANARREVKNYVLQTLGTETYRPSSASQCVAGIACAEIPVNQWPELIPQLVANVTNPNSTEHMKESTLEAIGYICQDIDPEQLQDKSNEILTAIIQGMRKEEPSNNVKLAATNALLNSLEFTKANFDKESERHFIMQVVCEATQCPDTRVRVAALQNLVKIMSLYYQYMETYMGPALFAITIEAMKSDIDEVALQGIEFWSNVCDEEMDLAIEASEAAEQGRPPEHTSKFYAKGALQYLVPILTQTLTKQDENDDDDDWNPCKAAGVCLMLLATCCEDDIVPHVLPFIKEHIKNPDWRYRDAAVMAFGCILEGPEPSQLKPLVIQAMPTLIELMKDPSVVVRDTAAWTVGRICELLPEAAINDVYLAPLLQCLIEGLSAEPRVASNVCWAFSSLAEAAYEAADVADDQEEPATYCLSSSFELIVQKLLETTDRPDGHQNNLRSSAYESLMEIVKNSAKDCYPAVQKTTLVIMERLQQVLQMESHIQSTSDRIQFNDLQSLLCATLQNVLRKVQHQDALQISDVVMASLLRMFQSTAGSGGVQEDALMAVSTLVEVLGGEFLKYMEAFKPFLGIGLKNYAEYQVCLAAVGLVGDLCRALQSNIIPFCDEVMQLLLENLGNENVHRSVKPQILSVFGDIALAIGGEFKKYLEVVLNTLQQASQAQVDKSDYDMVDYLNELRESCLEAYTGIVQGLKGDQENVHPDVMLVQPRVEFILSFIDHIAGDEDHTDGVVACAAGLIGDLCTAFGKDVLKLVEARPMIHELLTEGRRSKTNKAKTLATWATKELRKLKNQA
T1 sequence (Q80U96 whole entry): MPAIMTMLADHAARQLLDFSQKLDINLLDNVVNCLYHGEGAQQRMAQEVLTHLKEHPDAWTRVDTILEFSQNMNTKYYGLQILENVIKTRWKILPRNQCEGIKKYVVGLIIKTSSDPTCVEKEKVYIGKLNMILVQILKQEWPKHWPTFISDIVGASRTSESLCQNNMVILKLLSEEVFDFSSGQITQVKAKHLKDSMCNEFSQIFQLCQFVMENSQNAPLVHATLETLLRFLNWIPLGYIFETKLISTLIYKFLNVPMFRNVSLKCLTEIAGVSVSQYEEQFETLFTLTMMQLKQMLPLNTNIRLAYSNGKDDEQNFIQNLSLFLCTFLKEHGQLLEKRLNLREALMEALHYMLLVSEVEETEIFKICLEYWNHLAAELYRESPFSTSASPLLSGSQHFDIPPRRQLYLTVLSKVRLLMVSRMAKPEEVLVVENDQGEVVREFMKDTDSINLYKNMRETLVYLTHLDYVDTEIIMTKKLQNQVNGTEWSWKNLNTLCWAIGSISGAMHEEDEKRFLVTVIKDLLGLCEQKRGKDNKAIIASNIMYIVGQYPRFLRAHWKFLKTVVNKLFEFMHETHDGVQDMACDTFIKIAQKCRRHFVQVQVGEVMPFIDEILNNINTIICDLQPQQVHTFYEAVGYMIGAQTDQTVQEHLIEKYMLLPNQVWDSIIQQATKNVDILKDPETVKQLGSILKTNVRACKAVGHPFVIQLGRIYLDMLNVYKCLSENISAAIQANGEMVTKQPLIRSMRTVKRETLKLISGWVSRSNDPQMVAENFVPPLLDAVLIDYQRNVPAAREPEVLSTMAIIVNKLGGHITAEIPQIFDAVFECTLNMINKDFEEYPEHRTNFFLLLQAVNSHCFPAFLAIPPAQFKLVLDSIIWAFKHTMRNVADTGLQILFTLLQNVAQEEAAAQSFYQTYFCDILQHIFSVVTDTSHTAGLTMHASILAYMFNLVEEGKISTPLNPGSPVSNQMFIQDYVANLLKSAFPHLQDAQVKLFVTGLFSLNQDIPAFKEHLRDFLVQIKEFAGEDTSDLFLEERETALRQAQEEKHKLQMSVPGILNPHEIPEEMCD

Compound | nuclear accumulation/import of selected transcription factors (cJUN, ERK 1/2, GATA4, NFAT2) [1] | calcineurin interaction/binding with importin β1 [2] | nuclear import (translocation) of CnA [3] | total CnA phosphatase activity (calcineurin (CnA)) [%] | dilation of the left ventricle (left ventricular end diastolic diameter, LVEDD) (Ang II treated mice) | development of myocardial hypertrophy in vivo (heart/body weight ratio, molecular markers, echocardiography) (Ang II treated mice; Ang II minipump mice) | further results
CCC(=C/[C@H](C)C/C=C/C(C)=C/[C@@H](C)C(=O)[C@@H](C)[C@H](O)[C@@H](C)C/C(C)=C/C(=O)O)/C=C/[C@@H]1OC(=O)C=C[C@@H]1C [LMB, leptomycin B] | – | – | – | – | – | – | nuclear export of CnA (CRM1): suppressed nuclear export of CnA
AAVALLPAVLAALAA KQECKIKYSERV (AAVALLPAVLAALAAKQECKIKYSERV; alternative nucl loc signal plus membrane anker) [SEQ ID NO: 5] | did not block import | – | – | – | – | – | –
AAVALLPAVLLALLAAQECAIAYSEYV (control peptide and membrane anker) [non sense peptide used in control experiments, reference compound] | – | did not interfere with the calcineurin/importin binding | not inhibited | 289±17 | did not prevent left ventricular dilation | – | –
AAVALLPAVLLALLAKQECKIKYSERV (nuclear localisation signal and membrane anker) [NLS peptide] | – | prevented CnA binding to importin β1; also recorded: abrogated the interaction of calcineurin and importin β1 | suppressed calcineurin nuclear import | 273±11 | dilation could prevented | able to suppress the development of myocardial hypertrophy in vivo | transcriptional activity of the CnA/NF-ATc signalling pathway ([4]; cardiomyocytes stimulated with Ang II (10 μM), n=8, p<0.05): 123±8%; transcriptional activity of calcineurin/NF-ATc (NF-ATc luciferase reporter plasmid), in words ([4]; neonatal rat cardiomyocytes, Ang II, FIG. 5A bottom, FIG. 5D): dose dependent manner; cell size [5]: 728±65 μm^2; expression of brain natriuretic peptide (BNP) [5]: 88±8%; protein synthesis [5]: 133±12%; f-MHC expression as molecular marker of hypertrophy (Ang II treated mice; mice treated with angiotensin for 4 weeks, FIG. 7B): prevented expression of this marker; Luciferase activity (NFAT Luciferase reporter): suppressed Luciferase activity
blocking peptide: mimics the calcineurin NLS, with peptide extension to increase membrane permeability; synthesised as a cyclic peptide for in vivo use (AAVALLPAVLLALLAKQECKIKYSERV; also: synthesised as cyclic peptide, mode not given here) | did not prevent nuclear accumulation | – | – | – | – | able to prevent the development of myocardial hypertrophy; also recorded: prevents myocardial hypertrophy | T cell protein synthesis (H3-thymidin incorporation) / activation of lymphocytes (T cells): inhibited significantly; also recorded: significantly prevented activation of lymphocytes; calcineurin entry into the nucleus in vivo (Ang II treated mice; Ang II minipump mice, cellular level): suppressed calcineurin entry into the nucleus; heart weight (Ang II treated mice; mice treated with Ang II for 4 weeks, cyclic peptide with membrane permeability extension, 25 mg/kg body weight/day i.p. twice daily, FIG. 7A): prevented an increase in heart weight
KQECKIKYSERV [SEQ ID NO: 2] | – | – | – | – | – | – | toxic effect ([4]; higher concentrations (>1 μM), values below background levels of untreated cardiomyocytes, FIG. 5D): toxic effect is possible

— patent US7928057B2, “Peptide for inhibition of calcineurin, nucleic acid, antibody, and diagnostic and therapeutic methods of use” (Julius-Maximilians-Universitaet Wuerzburg, priority 2006, dated 2011)
